Data on eleven compounds can be found in ChEMBL document CHEMBL1146830, “Synthesis and biological evaluation of nonpeptide integrin antagonists containing spirocyclic scaffolds” (Bioorg Med Chem Lett, 2004).

For assay [1], the target named is Integrin alpha-5/beta-1 (Homo sapiens, UniProt P05556+P08648). The assay can be described thus: Alpha-5 beta-1 antagonism using an ELISA assay. In kind it is functional. (ELISA stands for enzyme-linked immunosorbent assay.)
The target of assay [2] is Integrin alpha-V/beta-3 and alpha-IIb/beta 3 (Homo sapiens, UniProt P05106+P06756+P08514). The assay can be described thus: Inhibition of platelet aggregation in human platelet-rich plasma alpha IIb beta-3 integrin to assess the selectivity for the alpha-v beta-3 over the GPIIb/IIIa integrin receptor.
The target in assay [3] is Integrin alpha-V/beta-3 (Homo sapiens). The assay can be described thus: Evaluated in an functional alpha-v beta-3 antagonism assay, involving adhesion of beta-3-transfected 293 cells to fibrinogen (alpha-v beta-3 293 beta3).

Chain of Integrin alpha-5/beta-1 (P05556 21-798 limits assumed): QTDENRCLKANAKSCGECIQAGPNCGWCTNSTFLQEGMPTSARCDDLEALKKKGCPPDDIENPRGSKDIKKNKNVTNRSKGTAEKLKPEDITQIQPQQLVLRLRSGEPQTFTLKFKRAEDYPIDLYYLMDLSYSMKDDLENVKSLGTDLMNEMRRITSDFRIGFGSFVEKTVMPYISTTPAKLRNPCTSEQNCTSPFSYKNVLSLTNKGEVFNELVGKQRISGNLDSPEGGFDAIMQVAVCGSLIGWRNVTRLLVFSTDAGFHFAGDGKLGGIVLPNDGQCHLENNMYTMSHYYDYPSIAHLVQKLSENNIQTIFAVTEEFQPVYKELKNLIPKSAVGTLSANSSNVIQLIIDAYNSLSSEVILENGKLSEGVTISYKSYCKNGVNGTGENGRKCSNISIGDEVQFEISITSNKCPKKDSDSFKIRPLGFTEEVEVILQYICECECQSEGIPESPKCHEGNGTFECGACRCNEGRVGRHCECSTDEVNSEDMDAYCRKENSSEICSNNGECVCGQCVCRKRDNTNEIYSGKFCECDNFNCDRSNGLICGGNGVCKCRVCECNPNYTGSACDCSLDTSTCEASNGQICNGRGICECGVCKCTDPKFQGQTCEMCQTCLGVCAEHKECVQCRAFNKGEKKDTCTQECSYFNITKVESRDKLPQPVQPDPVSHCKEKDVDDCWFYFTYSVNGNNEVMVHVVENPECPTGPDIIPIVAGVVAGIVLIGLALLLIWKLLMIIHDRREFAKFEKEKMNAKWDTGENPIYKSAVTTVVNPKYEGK
Chain of Integrin alpha-5/beta-1 (P08648 42-894 limits assumed): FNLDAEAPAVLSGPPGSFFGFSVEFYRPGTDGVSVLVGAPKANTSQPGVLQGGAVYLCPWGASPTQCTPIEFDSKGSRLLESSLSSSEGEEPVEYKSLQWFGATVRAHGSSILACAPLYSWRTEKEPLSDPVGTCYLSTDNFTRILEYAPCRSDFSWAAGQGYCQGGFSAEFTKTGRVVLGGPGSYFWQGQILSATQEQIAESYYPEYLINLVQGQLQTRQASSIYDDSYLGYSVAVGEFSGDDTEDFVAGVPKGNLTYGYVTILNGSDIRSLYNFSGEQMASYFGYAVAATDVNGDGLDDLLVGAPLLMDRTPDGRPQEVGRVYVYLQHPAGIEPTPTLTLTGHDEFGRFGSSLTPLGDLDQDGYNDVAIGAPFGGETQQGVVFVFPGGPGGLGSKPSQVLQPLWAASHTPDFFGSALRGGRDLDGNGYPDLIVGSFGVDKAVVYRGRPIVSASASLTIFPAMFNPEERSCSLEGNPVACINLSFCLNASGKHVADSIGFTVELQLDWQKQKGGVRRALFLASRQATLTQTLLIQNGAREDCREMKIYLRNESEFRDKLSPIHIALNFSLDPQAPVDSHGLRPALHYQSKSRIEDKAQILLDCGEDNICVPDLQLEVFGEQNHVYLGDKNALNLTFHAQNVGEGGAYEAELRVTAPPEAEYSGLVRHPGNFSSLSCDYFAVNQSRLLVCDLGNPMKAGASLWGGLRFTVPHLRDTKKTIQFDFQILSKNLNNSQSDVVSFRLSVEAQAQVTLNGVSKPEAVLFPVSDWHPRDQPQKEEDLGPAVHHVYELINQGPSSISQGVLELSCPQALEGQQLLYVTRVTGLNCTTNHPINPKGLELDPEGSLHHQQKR
Chain of Integrin alpha-5/beta-1 (P08648 895-1049 limits assumed): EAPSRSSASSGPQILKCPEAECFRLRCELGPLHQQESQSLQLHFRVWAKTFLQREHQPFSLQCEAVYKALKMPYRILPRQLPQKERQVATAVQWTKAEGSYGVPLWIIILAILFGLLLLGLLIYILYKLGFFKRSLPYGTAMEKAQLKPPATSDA

For orientation: IC50 means the concentration at which inhibition is half-maximal. Low readings indicate inhibition by little substance, high ones a need for much substance. `Cc1cc(C)c(S(=O)(=O)N[C@@H](CNC(=O)C2=NO[C@]3(C2)C[C@@H](CNc2ccccn2)N(C(=O)OCc2ccccc2)C3)C(=O)O)c(C)c1`: the figures for the IC50 in assay [1], in assay [2] and in assay [3] were 0.18 nM, more than 100 µM and 49 nM, respectively.

For `Cc1cc(C)c(S(=O)(=O)N[C@@H](CNC(=O)C2=NO[C@@]3(C2)C[C@@H](CNC2=NCCN2)N(C(=O)OCc2ccccc2)C3)C(=O)O)c(C)c1`, the figures for the half-inhibitory concentration (IC50) in assay [1] and in assay [2] were 1200 nM and 9.2 µM, respectively.

As to `Cc1cc(C)c(S(=O)(=O)N[C@@H](CNC(=O)C2=NO[C@]3(C2)C[C@@H](CNc2ncc[nH]2)N(C(=O)OCc2cccnc2)C3)C(=O)O)c(C)c1`, the concentration for half-maximal inhibition (IC50) in assay [1] was 39 nM; in assay [2], 5.6 µM; in assay [3], 32 nM.

As to `Cc1cc(C)c(S(=O)(=O)N[C@@H](CNC(=O)C2=NO[C@]3(C2)C[C@@H](CNC2=NCCN2)N(C(=O)OCc2ccccc2)C3)C(=O)O)c(C)c1`, the IC50 came to 13 nM in assay [1] and 7.3 µM in assay [2].

With `COC(=O)N1C[C@@]2(CC(C(=O)NC[C@H](NS(=O)(=O)c3c(C)cc(C)cc3C)C(=O)O)=NO2)C[C@H]1CNc1ncc[nH]1`, the IC50 in assay [1] came out at 21 nM; in assay [2] it was 7.3 µM; in assay [3], 57 nM.

For `Cc1cc(C)c(S(=O)(=O)N[C@@H](CNC(=O)C2=NO[C@]3(CN[C@H](CNc4ncc[nH]4)C3)C2)C(=O)O)c(C)c1`, the 50% inhibitory concentration (IC50) in assay [1] came out at 230 nM; in assay [2], 1.4 µM; in assay [3], 180 nM.

`Cc1cc(C)c(S(=O)(=O)N[C@@H](CNC(=O)C2=NO[C@]3(C2)C[C@@H](CNc2ncc[nH]2)N(C(=O)OCc2ccccc2)C3)C(=O)O)c(C)c1`: the results for the concentration for half-maximal inhibition (IC50) in assay [1], in assay [2] and in assay [3] were 18 nM, 34 µM and 41 nM, respectively.

On to `CCCCOC(=O)N1C[C@@]2(CC(C(=O)NC[C@H](NS(=O)(=O)c3c(C)cc(C)cc3C)C(=O)O)=NO2)C[C@H]1CNc1ncc[nH]1`, for which the results for the half-inhibitory concentration (IC50) in assay [1], in assay [2] and in assay [3] were 14 nM, 11 µM and 130 nM, respectively.

With `COC(=O)N1C[C@@]2(CC(C(=O)NC[C@H](NS(=O)(=O)c3c(C)cc(C)cc3C)C(=O)O)=NO2)C[C@H]1CNc1nc2ccccc2[nH]1`, the IC50 in assay [1] was 1.4 nM; in assay [2] it was more than 100 µM; in assay [3], 34 nM.

In the case of `Cc1cc(C)c(S(=O)(=O)N[C@@H](CNC(=O)C2=NO[C@]3(C2)C[C@@H](CNc2nc4ccccc4[nH]2)N(C(=O)OCc2ccccc2)C3)C(=O)O)c(C)c1`, the figures for the half-inhibitory concentration (IC50) in assay [2] and in assay [3] were more than 100 µM and 74 nM, respectively.

Consider `CCCCOC(=O)N1C[C@@]2(CC(C(=O)NC[C@H](NS(=O)(=O)c3c(C)cc(C)cc3C)C(=O)O)=NO2)C[C@H]1CNc1nc2ccccc2[nH]1`, for which the half-maximal inhibitory concentration (IC50) was determined as 0.39 nM in assay [1] and 87 nM in assay [3].
